Tests used:
[1] = Solubility test in low-polarity solvents (saturated solution, λmax, solubility, εC); format: physicochemical; conditions: for Solubility: saturated solution
Protocol: The solubility of each dye in n-decane, tetradecane, Isopar M, Isopar G, and decalin was examined in the following manner. Each dye was added to each solvent until a dissolution residue came to remain, and this mixture was subjected to a 30-minute ultrasonic treatment at 30 degrees. The resultant mixture was allowed to stand at 5° C. for 24 hours and then subjected to centrifugal filtration (centrifugal force, 5,200×g) with a 0.1-μm filter using a microcentrifuge. The saturated solution obtained was diluted to an adequate concentration, and the solubility of each dye was calculated from a relationship with an extinction coefficient determined beforehand. Furthermore, the value of the product of the molar extinction coefficient ε (Lmol^−1cm^−1) and the concentration C (molL^−1) of the saturated solution, εC, was determined.
Sudan Black B (manufactured by Tokyo Kasei Kogyo Co., Ltd.), which is a commercial oil-soluble black dye, was added to n-decane until a dissolution residue came to remain, and this mixture was subjected to a 30-minute ultrasonic treatment at 30 degrees. The resultant mixture was allowed to stand at 5° C. for 24 hours and then subjected to centrifugal filtration (centrifugal force, 5,200×g) with a 0.1-μm filter using a microcentrifuge. The saturated n-decane solution obtained was diluted to an adequate concentration, and the solubility of the dye was calculated from a relationship with an extinction coefficient determined beforehand.

[2] = Light fastness test (retention of dye after 2 hours of high-pressure mercury lamp irradiation); format: physicochemical; conditions: 1 mg in 250 mL, 2 hours irradiation
Protocol: The light fastness of each dye was examined in the following manner. One milligram of each dye was dissolved in 250 mL of each of n-decane, tetradecane, Isopar M, and Isopar G, and the solution was irradiated with light for 2 hours using photoreaction apparatus UVL-400HA (400-W high-pressure mercury lamp), manufactured by Riko-Kagaku Sangyo Co., Ltd. During the irradiation, the vessel was cooled with a coolant to keep the internal temperature at 10-30° C. The retention of the dye was determined through the following calculation to evaluate the light fastness. Retention of dye=(absorbance at absorption-maximum wavelength after irradiation)/(absorbance at absorption-maximum wavelength before irradiation)

εC ([1]; Isopar G): 5000 cm⁻¹
λmax (absorption-maximum wavelength) ([1]; Isopar G solution): 542 nm
Solubility ([1]; Isopar G): 5.7%
εC ([1]; Isopar M): 4000 cm⁻¹
λmax (absorption-maximum wavelength) ([1]; Isopar M solution): 544 nm
Solubility ([1]; Isopar M): 4.32%
εC ([1]; decalin): 24000 cm⁻¹
λmax (absorption-maximum wavelength) ([1]; decalin solution): 547 nm
Solubility ([1]; decalin): 24.5%
εC (molar extinction coefficient × concentration of saturated solution) ([1]; n-decane): 6600 cm⁻¹
λmax (absorption-maximum wavelength) ([1]; n-decane solution): 543 nm
Solubility ([1]; n-decane, stood at 5° C. for 24 hours, 0.1-μm filter): 7.9%
εC ([1]; tetradecane): 4900 cm⁻¹
λmax (absorption-maximum wavelength) ([1]; tetradecane solution): 545 nm
Solubility ([1]; tetradecane): 5.4%
Light fastness: retention of dye ([2]; Isopar G): 100%
Light fastness: retention of dye ([2]; Isopar M): 100%
Light fastness: retention of dye ([2]; n-decane, 400-W high-pressure mercury lamp): 97%
Light fastness: retention of dye ([2]; tetradecane): 94%
SMILES: CCCCC(CC)CN(CC(CC)CCCC)c1ccc(N=Nc2snc(C)c2C#N)c(NC(C)=O)c1 (stereo not shown) [Dye 2]

Source: US8747537B2, “Ink containing heterocyclic azo dye, and dye for use in said ink” (Mitsubishi Chemical Corporation, priority 2010, dated 2014)
